Source: US20240270821A1, “GIP/GLP1/GCG TRI-RECEPTOR AGONISTS AND USES THEREOF” (priority 2023, published 2024)
Like-named read-outs stand apart in the source and are kept apart here. Starred links: 1 amine or outer side, 2 acyl side, 3 side chain; linkers in the order of their positions; H or OH if unused. Non-standard residues stand in square brackets, D forms with d. Residues, ends and D or L forms follow the SMILES beside them. Groups on a side chain read outwards from the residue. *: point of attachment. C18 diacid = O=C(O)CCCCCCCCCCCCCCCCC(=O)*; αMePhe(2-F) = C[C@](N)(Cc1ccccc1F)C(=O)O; γGlu = O=C(O)[C@H](CCC(=O)[*:2])N[*:1]; αMe4Pal = C[C@](N)(Cc1ccncc1)C(=O)O; αMeY = C[C@](N)(Cc1ccc(O)cc1)C(=O)O; 4Pal = N[C@@H](Cc1ccncc1)C(=O)O; αMeL = CC(C)C[C@](C)(N)C(=O)O; αMeS = C[C@](N)(CO)C(=O)O; Orn = NCCC[C@H](N)C(=O)O; AEEA = NCCOCCOCC(=O)O; Aib = CC(C)(N)C(=O)O

What was measured:
hGIPR [1] = target: T1, hGIPR (Homo sapiens, UniProt P48546); test: Functional cAMP activity in the presence of 1% HSA; type: cell-based; conditions: read-out: cAMP Rel EC50, hGIPR
T1 sequence (P48546 22-466): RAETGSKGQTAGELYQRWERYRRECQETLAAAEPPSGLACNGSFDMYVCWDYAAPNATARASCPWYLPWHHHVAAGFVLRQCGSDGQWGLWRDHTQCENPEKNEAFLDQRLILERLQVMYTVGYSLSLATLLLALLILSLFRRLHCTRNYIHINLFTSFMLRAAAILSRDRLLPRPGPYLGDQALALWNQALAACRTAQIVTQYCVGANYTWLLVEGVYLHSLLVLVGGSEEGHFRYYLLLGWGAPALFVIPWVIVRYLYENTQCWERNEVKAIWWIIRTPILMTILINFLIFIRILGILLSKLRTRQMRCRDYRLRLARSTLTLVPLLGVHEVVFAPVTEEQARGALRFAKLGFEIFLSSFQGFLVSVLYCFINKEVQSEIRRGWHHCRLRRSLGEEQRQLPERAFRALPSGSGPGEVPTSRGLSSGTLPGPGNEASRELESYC

hGLP-1R [2] = target: T2, hGLP-1R (Homo sapiens, UniProt P43220); test: Functional cAMP activity in the presence of 1% HSA; type: cell-based; conditions: read-out: cAMP Rel EC50, hGLP-1R
T2 sequence (P43220 24-463): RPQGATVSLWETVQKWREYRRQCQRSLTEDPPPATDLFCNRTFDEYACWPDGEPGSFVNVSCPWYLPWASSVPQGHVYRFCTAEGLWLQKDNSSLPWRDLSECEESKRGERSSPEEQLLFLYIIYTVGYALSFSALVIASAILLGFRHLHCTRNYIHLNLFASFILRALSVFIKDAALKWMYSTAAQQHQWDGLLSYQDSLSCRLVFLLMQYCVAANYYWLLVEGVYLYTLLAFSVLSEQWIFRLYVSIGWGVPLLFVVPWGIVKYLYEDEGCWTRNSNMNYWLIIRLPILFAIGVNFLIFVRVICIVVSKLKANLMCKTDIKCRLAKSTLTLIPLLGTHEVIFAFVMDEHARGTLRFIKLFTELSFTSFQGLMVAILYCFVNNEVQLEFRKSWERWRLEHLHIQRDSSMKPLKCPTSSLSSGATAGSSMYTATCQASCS

human GcgR = human GcgR (Homo sapiens, UniProt P47871); test: Functional cAMP activity in the presence of 1% HSA; type: cell-based; conditions: read-out: cAMP Rel EC50, hGcgR
Sequence of human GcgR (P47871 26-477): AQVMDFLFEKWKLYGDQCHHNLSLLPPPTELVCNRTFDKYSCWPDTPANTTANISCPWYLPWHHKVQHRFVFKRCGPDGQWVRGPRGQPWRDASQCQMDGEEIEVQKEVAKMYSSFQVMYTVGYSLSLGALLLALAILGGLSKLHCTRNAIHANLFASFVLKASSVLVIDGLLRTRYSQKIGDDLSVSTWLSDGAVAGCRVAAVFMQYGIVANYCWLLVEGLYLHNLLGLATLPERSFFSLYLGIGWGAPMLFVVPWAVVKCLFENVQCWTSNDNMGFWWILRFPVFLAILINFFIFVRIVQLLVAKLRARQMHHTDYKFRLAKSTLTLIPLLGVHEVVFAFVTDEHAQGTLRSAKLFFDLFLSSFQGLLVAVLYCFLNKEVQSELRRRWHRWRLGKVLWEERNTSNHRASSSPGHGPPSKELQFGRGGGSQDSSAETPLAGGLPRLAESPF

hGIPR [3] = target: T1, hGIPR; test: Functional cAMP activation in the presence of 0.1% casein (no HSA); type: cell-based; conditions: read-out: Relative cAMP EC50, hGIPR;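 for Relative cAMP EC50, hGIPR: intracellular cAMP rise after 30 min at 37 °C read by HTRF against a standard curve, scaled between buffer alone (0%) and top control ligand concentration (100%), four-parameter fit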;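 for Relative cAMP EC50, hGLP-1R: intracellular cAMP rise after 30 min at 37 °C read by HTRF, normalized between buffer only (0%) and maximal control ligand (100%), four-parameter variable-slope fit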;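 for Relative cAMP EC50, hGcgR: intracellular cAMP rise after 30 min at 37 °C, read by HTRF against a cAMP standard curve, scaled from buffer only (0%) to maximal control ligand response (100%)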
hGLP-1R [4] = target: T2, hGLP-1R; test: as above; type: cell-based; conditions: read-out: Relative cAMP EC50, hGLP-1R
hGcgR = hGcgR (Homo sapiens, UniProt P47871); test: as above; type: cell-based; conditions: read-out: Relative cAMP EC50, hGcgR;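 note: intracellular cAMP rise after 30 min at 37 °C, read by HTRF against a cAMP standard curve, scaled from buffer only (0%) to maximal control ligand response (100%)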
Sequence of hGcgR (P47871 26-477): as above

in vivo [5] = test: in vivo; design: species or system Sprague Dawley rats; conditions: male, Sprague Dawley, rat, 4 mg/kg
Procedure: The pharmacokinetics of the exemplary analogs are evaluated following a single subcutaneous (SC) administration of 10 nmol/kg (dissolved in 40 mM Tris pH8) or single 4 mg/kg (mixed with 250 mM sodium decanoate/C10 in 40 mM Tris pH8) intrajejunal (IJ) administration to male Sprague Dawley rats. Blood samples are collected over 96 hours following SC administration and 72 hours following IJ dosing, and resulting individual plasma concentrations are used to calculate pharmacokinetic parameters. Peptide plasma (K3 EDTA) concentrations are determined using a qualified LC/MS method that measured the intact mass of the analog. Each peptide and an analog as an internal standard are extracted from rat plasma using methanol. A High Resolution Instrument was used for LC/MS detection.

in vivo [6] = test: in vivo; design: species or system cynomolgus monkeys; conditions: both sexes, cynomolgus monkey, iv, 10 nmol/kg
Procedure: (§1) A study is designed to evaluate the oral bioavailability of Example polypeptides in cynomolgus monkeys. […] Standards and controls are prepared in cynomolgus monkey plasma, and any dilutions required to bring samples into the quantitative range are also performed in control cynomolgus monkey plasma. To control assay variability, an internal standard (IS) is added to all the standards and samples. The Examples and IS are extracted from 100% monkey plasma (50 μL) by protein precipitation using isopropyl alcohol and methanol (50:50 v/v). The samples are then centrifuged (3000 rpm for 10 minutes) and the supernatant is transferred to a Siricco Protein Precipitation Plate. The samples are loaded on a Sep-Pak tC18 SPE microelution plate that is conditioned with 2% formic acid in acetonitrile and water. The compounds are then washed with 2% formic acid in water and eluted using 2% formic acid in acetonitrile into a plate containing 5× Invitrosol and 1% formic acid in water prior to injecting an aliquot (10 μL) on to Xselect CSH C18, 3.5 μm, 2.1×20 mm for LC/MS analysis.
Blood samples are collected over 504 hours. Plasma is harvested from blood samples by centrifugation and stored frozen (−70° C.) until analysis. Plasma concentrations of the molecules are detected using the bioanalytical method described above.

in vivo [7] = test: in vivo; design: species or system cynomolgus monkeys; conditions: both sexes, cynomolgus monkey, po; for bioavailability: 10 mg; for AUC(0-inf) / CL/F / Cmax / Tmax / half-life: 300 mg
Procedure: as §1
[…] Blood samples are collected up to 504 hours post-dose. Plasma is harvested from blood samples by centrifugation and stored frozen (−70° C.) until analysis. Plasma concentrations of the molecules are detected using the bioanalytical method described above.

[8] = Body weight in diet-induced obese C57BL/6 mice; type: in vivo; conditions: 10 nmol/kg SC QD, percent of starting weight, DIO mice, mean ± SEM n=5
Method in brief: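 Daily weighing gave body weight as percent of starting value (mean±SEM, n=5) over 9-16 days of SC dosing, once daily or every 3 days, shortly before lights-off. Animals were weight-randomized male C57BL/6 DIO mice, 41-50 g, fed ad libitum on a calorie-rich diet.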

human GLP1-R = human GLP1-R (Homo sapiens, UniProt P43220); test: GLP1-R internalization assay in HEK293 cells; type: cell-based; conditions: for EC50: HEK293 cells expressing SNAP-GLP-1R, read-out: GLP1R Internalization EC50; for Internalization % TOP: normalized to maximum concentration of GLP-1 (100%)
Sequence of human GLP1-R (P43220 24-463): as the sequence (P43220 24-463) above

[9] = test system: Intestinal organoid from Göttingen minipig jejunum tissue, 2D monolayer; test: Cell based in vitro permeability (Papp) assay; type: in vitro ADME
Method in brief: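 Papp calculated from LC/MS peptide levels in apical and basal compartments. Basal sampling at 20 min with C10 present, across monolayers grown from dissociated minipig jejunal organoids in transwells.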

[10] = Pepsin stability assay in simulated gastric fluid; type: in vitro ADME; conditions: pH 1.2, % Intact (SD)
Method in brief: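 Peptides (10 mg/mL stock in 50 mM Tris pH 8.0) incubated with pepsin A in simulated gastric fluid at 37° C. with shaking. Aliquots taken at time intervals were quenched with 100 mM ammonium bicarbonate pH 9, and intact peptide remaining was quantified by LC/MS.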

[11] = in the presence of 0.1% casein (no HSA), geometric mean

Molecule	EC50 (hGIPR [1])	EC50 (hGLP-1R [2])	EC50 (human GcgR)	EC50 (hGIPR [3]; [11])	EC50 (hGLP-1R [4]; [11])	EC50 (hGcgR; [11])	CL/F (in vivo [5])	half-life (in vivo [5])	EC50 (hGIPR [3])	EC50 (hGLP-1R [4])	EC50 (hGcgR)	AUC(0-inf) (in vivo [6])	clearance (in vivo [6])	half-life (in vivo [6])	bioavailability (in vivo [7])	AUC(0-inf) (in vivo [7])	CL/F (in vivo [7])	Cmax (in vivo [7])	Tmax (in vivo [7])	half-life (in vivo [7])	other results
CC[C@H](C)[C@H](NC(=O)[C@H](Cc1ccccc1)NC(=O)[C@H](C)NC(=O)C(C)(C)NC(=O)[C@H](CCC(N)=O)NC(=O)[C@H](C)NC(=O)[C@H](CCCCNC(=O)COCCOCCNC(=O)CC[C@H](NC(=O)CCCCCCCCCCCCCCCCC(=O)O)C(=O)O)NC(=O)[C@H](CCCN)NC(=O)[C@H](CC(=O)O)NC(=O)[C@H](CC(C)C)NC(=O)[C@](C)(CC(C)C)NC(=O)[C@@H](NC(=O)[C@](C)(CO)NC(=O)[C@H](Cc1ccc(O)cc1)NC(=O)[C@H](CC(=O)O)NC(=O)[C@H](CO)NC(=O)[C@@H](NC(=O)[C@](C)(Cc1ccccc1F)NC(=O)[C@@H](NC(=O)CNC(=O)[C@H](CCC(N)=O)NC(=O)C(C)(C)NC(=O)[C@@H](N)Cc1c[nH]cn1)[C@@H](C)O)[C@@H](C)O)[C@@H](C)CC)C(=O)N[C@H](CCC(=O)O)C(=O)N[C@@H](Cc1ccc(O)cc1)C(=O)N[C@@H](CC(C)C)C(=O)N[C@@H](CC(C)C)C(=O)N[C@@H](CCC(=O)O)C(=O)NCC(=O)NCC(=O)N1CCC[C@H]1C(=O)N[C@@H](CO)C(=O)N[C@@H](CO)C(=O)NCC(=O)N[C@@H](CCC(=O)O)C(=O)N1CCC[C@H]1C(=O)N1CCC[C@H]1C(=O)N1CCC[C@H]1C(=O)N[C@@H](CCC(=O)O)C(N)=O [Example 381] (H-H[Aib]QGT[αMePhe(2-F)]TSDY[αMeS]I[αMeL]LD[Orn]K([AEEA-γGlu-C18 diacid])AQ[Aib]AFI[dE]YLLEGGPSSGEPPPE-NH2)	7.01 nM	24.5 nM	176 nM	0.0156 nM	0.157 nM	1.39 nM	9.83 mL/min/kg	8.3 h	–	–	–	–	–	–	–	–	–	–	–	–	–
CC[C@H](C)[C@H](NC(=O)[C@H](Cc1ccccc1)NC(=O)[C@H](C)NC(=O)C(C)(C)NC(=O)[C@H](CCC(N)=O)NC(=O)[C@H](C)NC(=O)[C@H](CCCCNC(=O)COCCOCCNC(=O)CC[C@H](NC(=O)CCCCCCCCCCCCCCCCC(=O)O)C(=O)O)NC(=O)[C@H](CCCCN)NC(=O)[C@H](CC(=O)O)NC(=O)[C@H](CC(C)C)NC(=O)[C@H](CC(C)C)NC(=O)[C@@H](NC(=O)[C@H](CO)NC(=O)[C@H](Cc1ccc(O)cc1)NC(=O)[C@H](CC(=O)O)NC(=O)[C@H](CO)NC(=O)[C@@H](NC(=O)[C@](C)(Cc1ccccc1F)NC(=O)[C@@H](NC(=O)CNC(=O)[C@H](CCC(N)=O)NC(=O)C(C)(C)NC(=O)[C@@H](N)Cc1ccc(O)cc1)[C@@H](C)O)[C@@H](C)O)[C@@H](C)CC)C(=O)N[C@@H](CCC(=O)O)C(=O)N[C@@H](Cc1ccc(O)cc1)C(=O)N[C@@H](CC(C)C)C(=O)N[C@@H](CCC(=O)O)C(=O)N[C@@H](CCC(=O)O)C(=O)NCC(=O)NCC(=O)N1CCC[C@H]1C(=O)N[C@@H](CO)C(=O)N[C@@H](CO)C(=O)NCC(=O)N[C@@H](C)C(=O)N1CCC[C@H]1C(=O)N1CCC[C@H]1C(=O)N1CCC[C@H]1C(=O)N[C@@H](CO)C(N)=O [Example 387] (H-Y[Aib]QGT[αMePhe(2-F)]TSDYSILLDKK([AEEA-γGlu-C18 diacid])AQ[Aib]AFIEYLEEGGPSSGAPPPS-NH2)	5.64 nM	26.5 nM	184 nM	0.0276 nM	0.255 nM	2.14 nM	14 mL/min/kg	9.2 h	–	–	–	–	–	–	–	–	–	–	–	–	–
H-Y[Aib]QGT[αMePhe(2-F)]TSD[4Pal][αMeS]I[αMeL]LD[Orn]K([AEEA-γGlu-C18 diacid])AQ[αMe4Pal]EFI[dE][αMeY]LIEGGPSSGAPPPSGSE-NH2 [Example 712]	0.584 nM	30.8 nM	171 nM	–	–	–	–	–	0.00689 nM	0.258 nM	1.36 nM	12.4 ± 0.862 µM·h	0.0135 mL/min/kg	54 ± 6.09 h	0.9%	6.18 µM·h	1.85 mL/min/kg	124 nM	3.75 h	51.8 h	Body weight (%) ([8]; 7 days): 69.4 ± 0.60 %; Body weight (%) ([8]; 14 days): 63.61 ± 3.73 %; EC50 (human GLP1-R): 35.3 nM; Internalization % TOP (human GLP1-R): 109%; Relative Papp (Compared to internal standard) [9]: 0.60; remaining at 0.25 h, 0.4 mg/mL [10]: 92.4%; remaining at 0.5 h, 0.4 mg/mL [10]: 91.4%; remaining at 1 h, 0.4 mg/mL [10]: 93.5%
H-Y[Aib]QGT[αMePhe(2-F)]TSD[4Pal][αMeS]I[αMeL]LD[Orn]K([AEEA-γGlu-C18 diacid])AQ[αMe4Pal]EFI[dE][αMeY]LVEGGPSSGAPPPSGS-NH2 [Example 694]	0.787 nM	25 nM	206 nM	–	–	–	–	–	0.00781 nM	0.253 nM	2.04 nM	10.7 ± 2.75 µM·h	0.0163 mL/min/kg	50.7 ± 16.8 h	2.4%	14.8 µM·h	0.873 mL/min/kg	353 nM	3.5 h	50.7 h	Body weight (%) ([8]; 7 days): 71.92 ± 1.28 %; Body weight (%) ([8]; 14 days): 69.77 ± 2.96 %; EC50 (human GLP1-R): 21.8 nM; Internalization % TOP (human GLP1-R): 97.3%; Relative Papp (Compared to internal standard) [9]: 0.60; remaining at 0.25 h, 0.4 mg/mL [10]: 101%
